Results reported in patent US20180296630A1, “METHODS AND COMPOSITIONS FOR PREVENTING OR TREATING OPHTHALMIC CONDITIONS” (Stealth BioTherapeutics Corp, priority 2012, published 2018).

Legend:
STZ-treated mice = assay: Spatial frequency (SPF) threshold in STZ-treated / diabetic-diet mice; format: in vivo
Procedure: Subjects were maintained on a normal diet (ND) or diabetic diet (DD) for up to 32 weeks, and were administered D-Arg-2′,6′-Dmt-Lys-Phe-NH2 or control vehicle with or without streptozotocin. Results are shown in FIG. 41, with response values are averaged for each eye.

[1] = system: STZ and HFD/STZ diabetic rats; assay: Inner blood-retinal barrier function (Evans blue extravasation) in diabetic SD rats; format: in vivo, Sprague-Dawley rat; settings: compared to rats on a HFD not administered peptide
Procedure: FIGS. 10A and 10B are charts showing the integrity of the blood-retinal barrier of normal rats (NRC), diabetic rats, and diabetic rats treated with Phe-D-Arg-Phe-Lys-NH2 (SS-20) or D-Arg-2′,6′-Dmt-Lys-Phe-NH2(SS-31), as analyzed by Evans blue extravasation. (A) diabetes induced by STZ; (B) diabetes induced by HFD/STZ.
(§1) A rat model of diabetes was established by combination of 6-week HFD and low dose of STZ (30 mg/kg) injection or a single high dose of STZ (65 mg/kg) in SD rats. See generally, K. Srinivasan, B. Viswanad, Lydia Asrat, C. L. Kaul and P. Ramarao, Combination of high-fat diet-fed and low-dose streptozotocin-treated rat: A model for type 2 diabetes and pharmacological screening, Pharmacological Research, 52(4): 313-320, 2005. Rats of the same batch fed with normal chow (NRC) were used as a control.
The effect of the aromatic-cationic peptides on the inner blood-retinal barrier function in the SD rat model was investigated.

[2] = system: primary human retinal pigment epithelial (RPE) cells; assay: MMP of RPE cells exposed to tBHP (JC-1, FACS); format: cell-based
Procedure: Next, the viability of primary RPE cells was tested in the presence of tBHP and various concentrations of D-Arg-2′,6′-Dmt-Lys-Phe-NH2. Cells were plated at 10,000 cells per well in a 96-well plate and cultured for 24 h, then starved for 24 h. After that, cells were exposed to increasing concentrations of tBHP (FIG. 23A), or preincubated for 4 h with different concentrations of D-Arg-2′,6′-Dmt-Lys-Phe-NH2, then stimulated with tBHP for 6 h (FIG. 23B). […] Intracellular ROS production in three groups of RPE cells was also examined using FACS analysis. […] Three different concentration of D-Arg-2′,6′-Dmt-Lys-Phe-NH2 groups were analyzed. The ratio of red to green in 500 μM tBHP for the 3 h group is 1.08, the ratio of red to green in 10 nM D-Arg-2′,6′-Dmt-Lys-Phe-NH2 for 4 h+500 tBHP for 3 h group is 1.25; the ratio of red to green in 100 nM D-Arg-2′,6′-Dmt-Lys-Phe-NH2 for 4 hr+500 μM tBHP for 3 h group is 1.4; and the ratio of red to green in 1 μM D-Arg-2′,6′-Dmt-Lys-Phe-NH2 for 4 h+500 μM tBHP for 3 h group is […]. […] FIG. 33A: Control group, R/G is 3.63±0.24; FIG. 33B: 500 μM tBHP for 3 h group, R/G is 1.08±0.11; FIG. 33C: 1 μM D-Arg-2′,6′-Dmt-Lys-Phe-NH2 for 4 h+500 μM tBHP for 3 h group, R/G is 2.38±0.18. FIG. 33D is a chart comparing the fluorescence ratio for the different groups. *P<0.01, C vs. B.

HFD/STZ diabetic rats = assay: Lens opacity (cataract) in HFD/STZ rat model; format: in vivo, Sprague-Dawley rat; settings: for Percentage of opacity / Percentage of severe opacity / Turbidity degree + (mildly opaque), number in group / Turbidity degree ++ (opaque), number in group / Turbidity degree +++ (moderately opaque), number in group / Turbidity degree ++++ (severely opaque), number in group / Turbidity degree − (transparent), number in group: HFD/STZ rat model
Procedure: as §1

## D-Arg-2′,6′-Dmt-Lys-Phe-NH2
STZ-treated mice; STZ-treated animals maintained on a diabetic diet, eyedrop
  rescue of visual impairment by eyedrop versus systemic administration: one month sooner
STZ-treated mice; STZ-treated animals, systemic treatment initiated at 12 weeks
  time by which the visual deficit was fully rescued: ≤ 24 weeks
STZ-treated mice; animals on a diabetic diet alone
  time by which rescue was shown: ≤ 30 weeks
STZ-treated mice; animals on a diabetic diet and administered STZ
  time by which the visual deficit was fully restored: ≤ 24 weeks
STZ-treated mice; animals with metabolic dysfunction
  visual impairment (spatial frequency threshold): rescued
[1]
  inner blood-retinal barrier function: improved
[2]; 10 nM for 4 h + 500 tBHP for 3 h (FIG. 32)
  ratio of red to green (JC-1): 1.25
[2]; 100 nM for 4 hr + 500 μM tBHP for 3 h (FIG. 32)
  ratio of red to green (JC-1): 1.4
[2]; 1 μM for 4 h + 500 μM tBHP for 3 h (FIG. 32)
  ratio of red to green (JC-1): 2.28
[2]; 1 μM for 4 h + 500 μM tBHP for 3 h (FIG. 33C)
  R/G (JC-1): 2.38±0.18
HFD/STZ diabetic rats; HFD/STZ and STZ models (FIGS. 6 and 7, Tables 13 and 14)
  cataract formation in the lenses of diabetic rats: prevention or reversal of cataract formation
HFD/STZ diabetic rats; 1 mg (Table 9: 1 mg/kg s.c.)
  Percentage of opacity: 67.7%
  Percentage of severe opacity: 0%
  Turbidity degree + (mildly opaque), number in group: 1
  Turbidity degree ++ (opaque), number in group: 1
  Turbidity degree +++ (moderately opaque), number in group: 0
  Turbidity degree ++++ (severely opaque), number in group: 0
  Turbidity degree − (transparent), number in group: 1
HFD/STZ diabetic rats; 3 mg (Table 9: 3 mg/kg s.c.)
  Percentage of opacity: 20.0%
  Percentage of severe opacity: 20.0%
  Turbidity degree + (mildly opaque), number in group: 1
  Turbidity degree ++ (opaque), number in group: 0
  Turbidity degree +++ (moderately opaque), number in group: 0
  Turbidity degree ++++ (severely opaque), number in group: 1
  Turbidity degree − (transparent), number in group: 3
HFD/STZ diabetic rats; 10 mg (Table 9: 10 mg/kg s.c.)
  Percentage of opacity: 14.3%
  Percentage of severe opacity: 0%
  Turbidity degree + (mildly opaque), number in group: 1
  Turbidity degree ++ (opaque), number in group: 0
  Turbidity degree +++ (moderately opaque), number in group: 0
  Turbidity degree ++++ (severely opaque), number in group: 0
  Turbidity degree − (transparent), number in group: 6
